Where “and” joins values, the source holds several entries; their conditions need not be identical. Identical values can stand only once. Results filed as inconclusive are left out.
System: BDF1 mice, colon carcinoma 38 sc, T/C %
Assay: NCI In Vivo Anticancer Drug Screen. Data for tumor model Colon Carcinoma 38 (subcutaneous) in B6D2F1 (BDF1) mice
Conditions: endpoint: median tumor weight (est.), higher = larger tumour
Summary of the method: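 Transplantable tumor in mice; compound-treated vs vehicle-dosed controls. Measured survival or tumor size; value = T ÷ C.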

[1] = dose: 12.5 mg/kg/injection, schedule: Q07DX002 (ip), vehicle: saline with Tween-80
[2] = dose: 25.0 mg/kg/injection, schedule: Q07DX002 (ip), vehicle: Klucel (hydroxypropylcellulose) (HPC)
[3] = dose: 50.0 mg/kg/injection, schedule: Q07DX002 (ip), vehicle: Klucel (hydroxypropylcellulose) (HPC)
[4] = dose: 0.06 mg/kg/injection, schedule: Q07DX002 (ip), vehicle: saline
[5] = dose: 1.0 mg/kg/injection, schedule: Q07DX002 (ip), vehicle: saline
[6] = dose: 100.0 mg/kg/injection, schedule: Q07DX002 (ip), vehicle: saline
[7] = dose: 25.0 mg/kg/injection, schedule: Q07DX002 (ip), vehicle: saline
[8] = dose: 50.0 mg/kg/injection, schedule: Q07DX002 (ip), vehicle: saline
[9] = dose: 200.0 mg/kg/injection, schedule: Q07DX002 (ip), vehicle: saline

SMILES: C=C(OC1C(C)=C2C(C1OC(=O)CCCCCCC)C(C)(OC(C)=O)CC(OC(=O)CCC)C1(O)C2OC(=O)C1(C)O)/C(C)=C/C (configuration not stated)
- T/C (dose: 0.21 mg/kg/injection, schedule: Q07DX002 (ip), vehicle: Klucel (hydroxypropylcellulose) (HPC)): 35 % of control
- T/C (dose: 0.84 mg/kg/injection, schedule: Q07DX002 (ip), vehicle: Klucel (hydroxypropylcellulose) (HPC)): 82 % of control and 86 % of control and 92 % of control

SMILES: CN(C)CCN1C(=O)c2cccc3cc([N+](=O)[O-])cc(c23)C1=O
- T/C (dose: 1.56 mg/kg/injection, schedule: Q07DX002 (ip), vehicle: saline with Tween-80): 93 % of control
- T/C (dose: 3.13 mg/kg/injection, schedule: Q07DX002 (ip), vehicle: saline with Tween-80): 90 % of control
- T/C (dose: 6.25 mg/kg/injection, schedule: Q07DX002 (ip), vehicle: saline with Tween-80): 70 % of control
- T/C [1]: 56 % of control

SMILES: Cn1c(N)c(C(=O)/C=C/c2ccccc2)c(=O)n(C)c1=O
- T/C [2]: 114 % of control
- T/C [3]: 112 % of control
- T/C (dose: 100.0 mg/kg/injection, schedule: Q07DX002 (ip), vehicle: Klucel (hydroxypropylcellulose) (HPC)): 109 % of control
- T/C (dose: 400.0 mg/kg/injection, schedule: Q07DX002 (ip), vehicle: Klucel (hydroxypropylcellulose) (HPC)): 123 % of control

SMILES: CN1N=C(N)c2cn(C3OC(COP(=O)(O)O)C(O)C3O)c3ncnc1c23 (configuration not stated)
- T/C (dose: 6.25 mg/kg/injection, schedule: Q07DX002 (ip), vehicle: water): 84 % of control
- T/C (dose: 25.0 mg/kg/injection, schedule: Q07DX002 (ip), vehicle: water): 68 % of control and 91 % of control
- T/C (dose: 100.0 mg/kg/injection, schedule: Q07DX002 (ip), vehicle: water): 73 % of control

SMILES: CCCCCCCCCCCCCCCC(=O)O[C@@]12C[C@@H](C)[C@@]3(O)[C@@H](C=C(CO)C[C@]4(O)C(=O)C(C)=C[C@@H]34)[C@@H]1C2(C)C
- T/C [4]: 92 % of control
- T/C (dose: 0.25 mg/kg/injection, schedule: Q07DX002 (ip), vehicle: saline): 91 % of control
- T/C (dose: 0.5 mg/kg/injection, schedule: Q07DX002 (ip), vehicle: saline): 101 % of control
- T/C [5]: 60 % of control

SMILES: COCC(O)Cn1ccnc1[N+](=O)[O-] (configuration not stated)
- T/C (dose: 12.5 mg/kg/injection, schedule: Q07DX003 (ip), vehicle: water): 85 % of control
- T/C (dose: 25.0 mg/kg/injection, schedule: Q07DX003 (ip), vehicle: water): 90 % of control
- T/C (dose: 50.0 mg/kg/injection, schedule: Q07DX003 (ip), vehicle: water): 100 % of control
- T/C (dose: 100.0 mg/kg/injection, schedule: Q07DX003 (ip), vehicle: water): 118 % of control
- T/C (dose: 200.0 mg/kg/injection, schedule: Q07DX003 (ip), vehicle: water): 72 % of control
- T/C (dose: 400.0 mg/kg/injection, schedule: Q07DX003 (ip), vehicle: water): 86 % of control

SMILES: OC(CBr)C(O)C(O)C(O)CBr (configuration not stated)
- T/C [2]: 56 % of control
- T/C (dose: 25.0 mg/kg/injection, schedule: Q07DX003 (ip), vehicle: saline with Tween-80): 85 % of control
- T/C [3]: 103 % of control
- T/C (dose: 50.0 mg/kg/injection, schedule: Q07DX003 (ip), vehicle: Klucel (hydroxypropylcellulose) (HPC)): 75 % of control
- T/C (dose: 100.0 mg/kg/injection, schedule: Q07DX003 (ip), vehicle: Klucel (hydroxypropylcellulose) (HPC)): 122 % of control
- T/C (dose: 200.0 mg/kg/injection, schedule: Q07DX003 (ip), vehicle: Klucel (hydroxypropylcellulose) (HPC)): 32 % of control
- T/C (dose: 200.0 mg/kg/injection, schedule: Q07DX003 (ip), vehicle: saline with Tween-80): 123 % of control
- T/C (dose: 400.0 mg/kg/injection, schedule: Q07DX003 (ip), vehicle: Klucel (hydroxypropylcellulose) (HPC)): 7 % of control
- T/C (dose: 400.0 mg/kg/injection, schedule: Q07DX003 (ip), vehicle: saline with Tween-80): 105 % of control

SMILES: O=C1NC2(CCCCC2)C(=O)N1CCN(CCCl)CCCl
- T/C (dose: 8.0 mg/kg/injection, schedule: Q07DX003 (ip), vehicle: Klucel (hydroxypropylcellulose) (HPC)): 60 % of control
- T/C (dose: 16.0 mg/kg/injection, schedule: Q07DX003 (ip), vehicle: Klucel (hydroxypropylcellulose) (HPC)): 69 % of control and 88 % of control
- T/C (dose: 32.0 mg/kg/injection, schedule: Q07DX003 (ip), vehicle: Klucel (hydroxypropylcellulose) (HPC)): 38 % of control and 62 % of control
- T/C (dose: 64.0 mg/kg/injection, schedule: Q07DX003 (ip), vehicle: Klucel (hydroxypropylcellulose) (HPC)): 28 % of control

SMILES: Nc1ccc(C(=O)Nc2ccccc2N)cc1
- T/C [1]: 121 % of control
- T/C (dose: 25.0 mg/kg/injection, schedule: Q01DX007 (ip), vehicle: saline with Tween-80): 160 % of control
- T/C (dose: 25.0 mg/kg/injection, schedule: Q01DX007 (oral), vehicle: saline with Tween-80): 58 % of control
- T/C (dose: 25.0 mg/kg/injection, schedule: Q07DX002 (ip), vehicle: saline with Tween-80): 67 % of control
- T/C (dose: 50.0 mg/kg/injection, schedule: Q01DX007 (ip), vehicle: saline with Tween-80): 71 % of control
- T/C (dose: 50.0 mg/kg/injection, schedule: Q01DX007 (oral), vehicle: saline with Tween-80): 78 % of control
- T/C (dose: 100.0 mg/kg/injection, schedule: Q01DX007 (ip), vehicle: saline with Tween-80): 123 % of control
- T/C (dose: 100.0 mg/kg/injection, schedule: Q07DX002 (ip), vehicle: saline with Tween-80): 121 % of control
- T/C (dose: 200.0 mg/kg/injection, schedule: Q01DX007 (oral), vehicle: saline with Tween-80): 76 % of control
- T/C (dose: 200.0 mg/kg/injection, schedule: Q07DX002 (ip), vehicle: saline with Tween-80): 84 % of control
- T/C (dose: 400.0 mg/kg/injection, schedule: Q01DX007 (oral), vehicle: saline with Tween-80): 105 % of control

SMILES: O=[N+]([O-])c1nccn1CC(O)CO (configuration not stated)
- T/C [6]: 120 % of control
- T/C (dose: 800.0 mg/kg/injection, schedule: Q07DX002 (ip), vehicle: saline): 105 % of control

SMILES: CCOC(=O)CC(SP(=S)(OC)OC)C(=O)OCC (configuration not stated)
- T/C (dose: 50.0 mg/kg/injection, schedule: Q07DX002 (ip), vehicle: suspension in saline): 114 % of control
- T/C (dose: 56.0 mg/kg/injection, schedule: Q07DX002 (ip), vehicle: saline with Tween-80): 67 % of control
- T/C (dose: 100.0 mg/kg/injection, schedule: Q07DX002 (ip), vehicle: suspension in saline): 119 % of control
- T/C (dose: 112.0 mg/kg/injection, schedule: Q07DX002 (ip), vehicle: saline with Tween-80): 102 % of control
- T/C (dose: 200.0 mg/kg/injection, schedule: Q07DX002 (ip), vehicle: suspension in saline): 49 % of control
- T/C (dose: 225.0 mg/kg/injection, schedule: Q07DX002 (ip), vehicle: saline with Tween-80): 88 % of control
- T/C (dose: 400.0 mg/kg/injection, schedule: Q07DX002 (ip), vehicle: suspension in saline): 69 % of control

SMILES: CCC(C(=O)O)C(=O)O.[NH-]CC1CCCC[N-]1.[Pt+2]
- T/C [7]: 305 % of control
- T/C [8]: 404 % of control
- T/C [6]: 209 % of control
- T/C [9]: 239 % of control

SMILES: CC[C@]1(O)C[C@H]2CN(CCc3c([nH]c4ccccc34)[C@@](C(=O)OC)(c3cc4c(cc3OC)N(C=O)[C@H]3[C@@](O)(C(=O)OC)[C@H](OC(C)=O)[C@]5(CC)C=CCN6CC[C@]43[C@@H]65)C2)C1
- T/C (dose: 0.01 mg/kg/injection, schedule: Q07DX002 (ip), vehicle: saline): 123 % of control
- T/C (dose: 0.03 mg/kg/injection, schedule: Q07DX002 (ip), vehicle: saline): 94 % of control
- T/C [4]: 95 % of control
- T/C (dose: 0.12 mg/kg/injection, schedule: Q07DX002 (ip), vehicle: saline): 54 % of control
- T/C [5]: 96 % of control and 106 % of control
- T/C (dose: 4.0 mg/kg/injection, schedule: Q07DX002 (ip), vehicle: saline): 43 % of control and 63 % of control

SMILES: Cn1cnc([N+](=O)[O-])c1SCC(=O)O
- T/C (dose: 12.5 mg/kg/injection, schedule: Q07DX002 (ip), vehicle: saline): 65 % of control
- T/C [7]: 62 % of control
- T/C [8]: 67 % of control
- T/C [6]: 99 % of control
- T/C (dose: 112.5 mg/kg/injection, schedule: Q07DX002 (ip), vehicle: saline): 111 % of control
- T/C [9]: 94 % of control
- T/C (dose: 225.0 mg/kg/injection, schedule: Q07DX002 (ip), vehicle: saline): 85 % of control
- T/C (dose: 400.0 mg/kg/injection, schedule: Q07DX002 (ip), vehicle: saline): 100 % of control
- T/C (dose: 450.0 mg/kg/injection, schedule: Q07DX002 (ip), vehicle: saline): 163 % of control
- T/C (dose: 900.0 mg/kg/injection, schedule: Q07DX002 (ip), vehicle: saline): 59 % of control
- T/C (dose: 1800.0 mg/kg/injection, schedule: Q07DX002 (ip), vehicle: saline): 101 % of control

From PubChem BioAssay AID212 (DTP/NCI, 2004)
